Tests used:
[1] = test system: UACC-62; experiment: Growth inhibition of human UACC62 cells after 48 hrs by sulforhodamine B protein assay; assay type: functional; conditions: UACC-62, 48 h
[2] = test system: IGROV-1; experiment: Growth inhibition of human IGROV1 cells after 48 hrs by sulforhodamine B protein assay; assay type: functional; conditions: IGROV-1, 48 h
[3] = test system: OVCAR-3; experiment: Growth inhibition of human OVCAR-3 cells after 48 hrs by sulforhodamine B protein assay; assay type: functional; conditions: OVCAR-3, 48 h
[4] = test system: OVCAR-5; experiment: Growth inhibition of human OVCAR5 cells after 48 hrs by sulforhodamine B protein assay; assay type: functional; conditions: OVCAR-5, 48 h
[5] = test system: OVCAR-8; experiment: Growth inhibition of human OVCAR8 cells after 48 hrs by sulforhodamine B protein assay; assay type: functional; conditions: OVCAR-8, 48 h
[6] = test system: SK-OV-3; experiment: Growth inhibition of human SKOV3 cells after 48 hrs by sulforhodamine B protein assay; assay type: functional; conditions: SK-OV-3, 48 h
[7] = test system: 786-0; experiment: Growth inhibition of human 786-0 cells after 48 hrs by sulforhodamine B protein assay; assay type: functional; conditions: 786-0, 48 h
[8] = test system: ACHN; experiment: Growth inhibition of human ACHN cells after 48 hrs by sulforhodamine B protein assay; assay type: functional
[9] = test system: CAKI-1; experiment: Growth inhibition of human Caki1 cells after 48 hrs by sulforhodamine B protein assay; assay type: functional; conditions: CAKI-1, 48 h
[10] = test system: RXF 393; experiment: Growth inhibition of human […] cells after 48 hrs by sulforhodamine B protein assay; assay type: functional; conditions: RXF 393, 48 h
[11] = test system: SN12C; experiment: Growth inhibition of human SN12C cells after 48 hrs by sulforhodamine B protein assay; assay type: functional
[12] = test system: TK-10; experiment: Growth inhibition of human TK10 cells after 48 hrs by sulforhodamine B protein assay; assay type: functional; conditions: TK-10, 48 h
[13] = test system: PC-3; experiment: Growth inhibition of human PC3 cells after 48 hrs by sulforhodamine B protein assay; assay type: functional; conditions: PC-3, 48 h
[14] = test system: DU-145; experiment: Growth inhibition of human DU145 cells after 48 hrs by sulforhodamine B protein assay; assay type: functional; conditions: DU-145, 48 h
[15] = test system: MCF7; experiment: Growth inhibition of human MCF7 cells after 48 hrs by sulforhodamine B protein assay; assay type: functional; conditions: MCF7, 48 h
[16] = test system: MDA-MB-231; experiment: Growth inhibition of human MDA-MB-231 cells after 48 hrs by sulforhodamine B protein assay; assay type: functional; conditions: MDA-MB-231, 48 h
[17] = Growth inhibition of human Hs 578T cells after 48 hrs by sulforhodamine B protein assay; assay type: functional
[18] = test system: MDA-MB-435; experiment: Growth inhibition of human MDA-MB-435 cells after 48 hrs by sulforhodamine B protein assay; assay type: functional; conditions: MDA-MB-435, 48 h
[19] = test system: BT-549; experiment: Growth inhibition of human BT549 cells after 48 hrs by sulforhodamine B protein assay; assay type: functional; conditions: BT-549, 48 h
[20] = test system: T47D; experiment: Growth inhibition of human T47D cells after 48 hrs by sulforhodamine B protein assay; assay type: functional
[21] = test system: MDA-MB-468; experiment: Growth inhibition of human MDA-MB-468 cells after 48 hrs by sulforhodamine B protein assay; assay type: functional; conditions: MDA-MB-468, 48 h
[22] = test system: DNA; experiment: Binding affinity to calf thymus DNA assessed as change in melting temperature at a compound to DNA molar ratio of 1:5 at pH 7 by thermal denaturation assay; assay type: nucleic-acid assay; conditions: Bos taurus
[23] = biological target: T1, Type II restriction enzyme BamHI (Bacillus amyloliquefaciens) (UniProt P23940); experiment: Inhibition of Bacillus amyloliquefaciens BamH1-mediated pBR322 cleavage after 16 hrs by RED100-restriction endonuclease digestion assay
T1 sequence (whole entry): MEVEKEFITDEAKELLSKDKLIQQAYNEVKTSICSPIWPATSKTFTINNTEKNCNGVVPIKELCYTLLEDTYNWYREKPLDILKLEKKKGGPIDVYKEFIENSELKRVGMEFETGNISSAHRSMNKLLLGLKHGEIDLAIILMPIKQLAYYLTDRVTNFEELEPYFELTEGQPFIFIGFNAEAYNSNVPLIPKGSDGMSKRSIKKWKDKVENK

[24] = test system: CCRF-CEM; experiment: Growth inhibition of human CCRF-CEM cells after 48 hrs by sulforhodamine B protein assay; assay type: functional
[25] = test system: HL-60(TB); experiment: Growth inhibition of human HL-60(TB) cells after 48 hrs by sulforhodamine B protein assay; assay type: functional; conditions: HL-60, 48 h
[26] = test system: K562; experiment: Growth inhibition of human K562 cells after 48 hrs by sulforhodamine B protein assay; assay type: functional; conditions: K562, 48 h
[27] = test system: MOLT-4; experiment: Growth inhibition of human MOLT4 cells after 48 hrs by sulforhodamine B protein assay; assay type: functional; conditions: MOLT-4, 48 h
[28] = Growth inhibition of human […] cells after 48 hrs by sulforhodamine B protein assay; assay type: functional
[29] = test system: SR; experiment: Growth inhibition of human SR cells after 48 hrs by sulforhodamine B protein assay; assay type: functional
[30] = test system: A549; experiment: Growth inhibition of human A549 cells after 48 hrs by sulforhodamine B protein assay; assay type: functional; conditions: A549, 48 h
[31] = test system: HOP-62; experiment: Growth inhibition of human HOP62 cells after 48 hrs by sulforhodamine B protein assay; assay type: functional; conditions: HOP-62, 48 h
[32] = test system: HOP-92; experiment: Growth inhibition of human HOP92 cells after 48 hrs by sulforhodamine B protein assay; assay type: functional; conditions: HOP-92, 48 h
[33] = test system: NCI-H23; experiment: Growth inhibition of human NCI-H23 cells after 48 hrs by sulforhodamine B protein assay; assay type: functional; conditions: NCI-H23, 48 h
[34] = test system: NCI-H460; experiment: Growth inhibition of human NCI-H460 cells after 48 hrs by sulforhodamine B protein assay; assay type: functional; conditions: NCI-H460, 48 h
[35] = test system: NCI-H522; experiment: Growth inhibition of human NCI-H522 cells after 48 hrs by sulforhodamine B protein assay; assay type: functional; conditions: NCI-H522, 48 h
[36] = test system: COLO 205; experiment: Growth inhibition of human COLO205 cells after 48 hrs by sulforhodamine B protein assay; assay type: functional; conditions: COLO 205, 48 h
[37] = test system: HCC 2998; experiment: Growth inhibition of human HCC2998 cells after 48 hrs by sulforhodamine B protein assay; assay type: functional; conditions: HCC 2998, 48 h
[38] = test system: HCT-116; experiment: Growth inhibition of human HCT116 cells after 48 hrs by sulforhodamine B protein assay; assay type: functional; conditions: HCT-116, 48 h
[39] = test system: HT-29; experiment: Growth inhibition of human HT-29 cells after 48 hrs by sulforhodamine B protein assay; assay type: functional; conditions: HT-29, 48 h
[40] = test system: KM12; experiment: Growth inhibition of human KM12 cells after 48 hrs by sulforhodamine B protein assay; assay type: functional; conditions: KM12, 48 h
[41] = test system: SW-620; experiment: Growth inhibition of human SW620 cells after 48 hrs by sulforhodamine B protein assay; assay type: functional; conditions: SW-620, 48 h
[42] = test system: SF-268; experiment: Growth inhibition of human SF268 cells after 48 hrs by sulforhodamine B protein assay; assay type: functional; conditions: SF-268, 48 h
[43] = test system: SF-539; experiment: Growth inhibition of human SF539 cells after 48 hrs by sulforhodamine B protein assay; assay type: functional; conditions: SF-539, 48 h
[44] = test system: SNB-19; experiment: Growth inhibition of human SNB19 cells after 48 hrs by sulforhodamine B protein assay; assay type: functional; conditions: SNB-19, 48 h
[45] = test system: SNB-75; experiment: Growth inhibition of human SNB75 cells after 48 hrs by sulforhodamine B protein assay; assay type: functional; conditions: SNB-75, 48 h
[46] = test system: U-251; experiment: Growth inhibition of human U251 cells after 48 hrs by sulforhodamine B protein assay; assay type: functional; conditions: U-251, 48 h
[47] = test system: LOX IMVI; experiment: Growth inhibition of human LOXIMVI cells after 48 hrs by sulforhodamine B protein assay; assay type: functional
[48] = test system: Malme-3M; experiment: Growth inhibition of human MALME-3M cells after 48 hrs by sulforhodamine B protein assay; assay type: functional
[49] = test system: M14; experiment: Growth inhibition of human M14 cells after 48 hrs by sulforhodamine B protein assay; assay type: functional; conditions: M14, 48 h
[50] = test system: SK-MEL-28; experiment: Growth inhibition of human SK-MEL-28 cells after 48 hrs by sulforhodamine B protein assay; assay type: functional; conditions: SK-MEL-28, 48 h
[51] = test system: SK-MEL-5; experiment: Growth inhibition of human SK-MEL-5 cells after 48 hrs by sulforhodamine B protein assay; assay type: functional; conditions: SK-MEL-5, 48 h
[52] = test system: A498; experiment: Growth inhibition of human A498 cells after 48 hrs by sulforhodamine B protein assay; assay type: functional; conditions: A498, 48 h

Question: With `COc1cc2c(cc1OCCCN1CCN(CCCOc3cc4c(cc3OC)C(=O)N3CC(F)(F)C[C@H]3C=N4)CC1)N=C[C@@H]1CC(F)(F)CN1C2=O` as the molecule, how does the GI50 [1] read?
Answer: 3.05 µM

Question: And the GI50 [2]?
Answer: 1.92 µM

Question: And the GI50 [3]?
Answer: 3.55 µM

Question: And the GI50 [4]?
Answer: 3.83 µM

Question: What about the GI50 [5] of the same molecule?
Answer: 6.3 µM

Question: And the GI50 [6]?
Answer: 8.64 µM

Question: What about the GI50 [7] of the same molecule?
Answer: 3.17 µM

Question: And the GI50 [8]?
Answer: 5.64 µM

Question: What about the GI50 [9] of the same molecule?
Answer: 3.31 µM

Question: What about the GI50 [10] of the same molecule?
Answer: 2.14 µM

Question: What about the GI50 [11] of the same molecule?
Answer: 4.05 µM

Question: What about the GI50 [12] of the same molecule?
Answer: 4.38 µM

Question: What about the GI50 [13] of the same molecule?
Answer: 3.06 µM

Question: And the GI50 [14]?
Answer: 3.63 µM

Question: What about the GI50 [15] of the same molecule?
Answer: 2.02 µM

Question: And the GI50 [16]?
Answer: 4.29 µM

Question: What about the GI50 [17] of the same molecule?
Answer: 2.32 µM

Question: And the GI50 [18]?
Answer: 2.94 µM

Question: What about the GI50 [19] of the same molecule?
Answer: 1.95 µM

Question: What about the GI50 [20] of the same molecule?
Answer: 3.25 µM

Question: What about the GI50 [21] of the same molecule?
Answer: 1.38 µM

Question: And the ΔTm [22]?
Answer: 11 °C

Question: What about the Activity [23] of the same molecule?
Answer: Dose-dependent effect

Question: What about the GI50 [24] of the same molecule?
Answer: 0.97 µM

Question: What about the GI50 [25] of the same molecule?
Answer: 1.18 µM

Question: And the GI50 [26]?
Answer: 1.74 µM

Question: What about the GI50 [27] of the same molecule?
Answer: 2.02 µM

Question: And the GI50 [28]?
Answer: 2.2 µM

Question: And the GI50 [29]?
Answer: 0.88 µM

Question: And the GI50 [30]?
Answer: 7.32 µM

Question: What about the GI50 [31] of the same molecule?
Answer: 3.17 µM

Question: What about the GI50 [32] of the same molecule?
Answer: 6.14 µM

Question: And the GI50 [33]?
Answer: 4.66 µM

Question: And the GI50 [34]?
Answer: 2.6 µM

Question: And the GI50 [35]?
Answer: 1.14 µM

Question: And the GI50 [36]?
Answer: 3.09 µM

Question: And the GI50 [37]?
Answer: 5.4 µM

Question: What about the GI50 [38] of the same molecule?
Answer: 3.59 µM

Question: What about the GI50 [39] of the same molecule?
Answer: 3.61 µM

Question: What about the GI50 [40] of the same molecule?
Answer: 4.1 µM

Question: What about the GI50 [41] of the same molecule?
Answer: 2.61 µM

Question: And the GI50 [42]?
Answer: 3.57 µM

Question: And the GI50 [43]?
Answer: 3.05 µM

Question: What about the GI50 [44] of the same molecule?
Answer: 4.08 µM

Question: What about the GI50 [45] of the same molecule?
Answer: 5.52 µM

Question: And the GI50 [46]?
Answer: 3.36 µM

Question: What about the GI50 [47] of the same molecule?
Answer: 1.89 µM

Question: What about the GI50 [48] of the same molecule?
Answer: 2.8 µM

Question: What about the GI50 [49] of the same molecule?
Answer: 3.25 µM

Question: What about the GI50 [50] of the same molecule?
Answer: 1.86 µM

Question: What about the GI50 [51] of the same molecule?
Answer: 4.28 µM

Question: And the GI50 [52]?
Answer: 2.43 µM

Question: For `COc1cc2c(cc1OCCCCOc1cc3c(cc1OC)C(=O)N1CC(F)(F)C[C@H]1C=N3)N=C[C@@H]1CC(F)(F)CN1C2=O`, which ΔTm [22] is on record?
Answer: 4.2 °C
